Reference: the supplement of paper PMC6411743

Tests used:
[1] = compound: Nc1nc2c(ncn2[C@@H]2O[C@H](COP(=O)(O)OP(=O)(O)OP(=O)(O)O)[C@@H](O)[C@H]2O)c(=O)[nH]1 [guanosine triphosphate]; assay: pEC50 of GTP-induced change in protein thermal stability (2D-TPP)
Method: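 2D thermal proteome profiling in Jurkat crude lysate. Lysate was treated 10 min at room temperature with Na-GTP (0, 0.001, 0.01, 0.1, 0.5 mM), heated to 12 temperatures (42-63.9 °C) for 3 min, and soluble protein was quantified by TMT10 LC-MS/MS. pEC50 is the median over replicates of dose-response fits (FDR-controlled hits).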

[2] = compound: Nc1ncnc2c1ncn2[C@@H]1O[C@H](COP(=O)(O)OP(=O)(O)OP(=O)(O)O)[C@@H](O)[C@H]1O [adenosine triphosphate]; assay: pEC50 of ATP-induced change in protein thermal stability (2D-TPP)
Procedure, shortened: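 Jurkat crude lysate was treated for 10 min at room temperature with five concentrations including vehicle, heated to 12 temperatures (42–63.9 °C) for 3 min, and given NP40 and benzonase (60 min, 4 °C). After ultracentrifugation, soluble protein was quantified by TMT LC-MS/MS, with fold changes against vehicle per temperature, median-normalised. pEC50 comes from dose-response fits per replicate over adjacent temperature pairs, with hits called by permutation-based false discovery rate control. Three independent experiments.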
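Wherever pEC50 of ATP-induced change in protein thermal stability (2D-TPP) is given: lysate dosed with Na-ATP at 0 0.005 0.05 0.5 and 2 mM.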

UniProt P17858, sequence (P17858 whole entry): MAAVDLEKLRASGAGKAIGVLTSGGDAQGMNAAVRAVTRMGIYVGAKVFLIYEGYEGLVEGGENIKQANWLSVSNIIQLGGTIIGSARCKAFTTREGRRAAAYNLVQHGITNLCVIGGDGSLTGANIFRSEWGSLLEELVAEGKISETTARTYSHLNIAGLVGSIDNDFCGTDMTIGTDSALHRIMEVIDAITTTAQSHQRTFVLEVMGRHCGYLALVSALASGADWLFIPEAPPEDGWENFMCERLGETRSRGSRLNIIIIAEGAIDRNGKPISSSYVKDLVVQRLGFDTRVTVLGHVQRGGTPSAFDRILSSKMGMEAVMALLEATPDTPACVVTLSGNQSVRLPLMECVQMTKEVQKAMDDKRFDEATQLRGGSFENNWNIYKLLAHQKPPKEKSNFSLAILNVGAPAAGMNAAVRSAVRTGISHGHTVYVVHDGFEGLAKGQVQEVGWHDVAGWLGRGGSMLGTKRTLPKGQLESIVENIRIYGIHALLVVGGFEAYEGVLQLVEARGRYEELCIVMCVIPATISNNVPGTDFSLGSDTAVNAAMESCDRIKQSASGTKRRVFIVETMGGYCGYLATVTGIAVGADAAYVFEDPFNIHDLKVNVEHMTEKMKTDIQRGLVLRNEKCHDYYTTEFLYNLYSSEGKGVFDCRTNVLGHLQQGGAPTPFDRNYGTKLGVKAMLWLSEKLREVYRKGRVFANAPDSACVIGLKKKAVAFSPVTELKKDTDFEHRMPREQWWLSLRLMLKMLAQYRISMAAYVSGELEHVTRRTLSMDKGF
UniProt Q969Z0, sequence (Q969Z0 whole entry): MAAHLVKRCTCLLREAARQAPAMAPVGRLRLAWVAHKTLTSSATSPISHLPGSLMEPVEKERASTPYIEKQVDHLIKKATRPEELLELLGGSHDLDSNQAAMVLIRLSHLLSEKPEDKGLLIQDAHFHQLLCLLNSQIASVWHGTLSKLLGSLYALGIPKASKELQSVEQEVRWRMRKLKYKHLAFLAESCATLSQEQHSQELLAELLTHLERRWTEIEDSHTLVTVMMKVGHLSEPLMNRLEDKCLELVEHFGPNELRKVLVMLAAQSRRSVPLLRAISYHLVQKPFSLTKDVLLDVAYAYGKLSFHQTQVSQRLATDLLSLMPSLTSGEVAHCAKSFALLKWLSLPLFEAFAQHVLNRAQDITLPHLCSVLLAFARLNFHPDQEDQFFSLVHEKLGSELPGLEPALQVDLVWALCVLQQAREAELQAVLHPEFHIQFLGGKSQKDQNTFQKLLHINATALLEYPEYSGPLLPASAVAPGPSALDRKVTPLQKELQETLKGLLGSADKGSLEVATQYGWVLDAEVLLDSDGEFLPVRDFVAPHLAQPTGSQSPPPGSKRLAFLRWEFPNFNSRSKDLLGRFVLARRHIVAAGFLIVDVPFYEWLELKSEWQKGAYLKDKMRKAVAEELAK
UniProt O15439, sequence (O15439 whole entry): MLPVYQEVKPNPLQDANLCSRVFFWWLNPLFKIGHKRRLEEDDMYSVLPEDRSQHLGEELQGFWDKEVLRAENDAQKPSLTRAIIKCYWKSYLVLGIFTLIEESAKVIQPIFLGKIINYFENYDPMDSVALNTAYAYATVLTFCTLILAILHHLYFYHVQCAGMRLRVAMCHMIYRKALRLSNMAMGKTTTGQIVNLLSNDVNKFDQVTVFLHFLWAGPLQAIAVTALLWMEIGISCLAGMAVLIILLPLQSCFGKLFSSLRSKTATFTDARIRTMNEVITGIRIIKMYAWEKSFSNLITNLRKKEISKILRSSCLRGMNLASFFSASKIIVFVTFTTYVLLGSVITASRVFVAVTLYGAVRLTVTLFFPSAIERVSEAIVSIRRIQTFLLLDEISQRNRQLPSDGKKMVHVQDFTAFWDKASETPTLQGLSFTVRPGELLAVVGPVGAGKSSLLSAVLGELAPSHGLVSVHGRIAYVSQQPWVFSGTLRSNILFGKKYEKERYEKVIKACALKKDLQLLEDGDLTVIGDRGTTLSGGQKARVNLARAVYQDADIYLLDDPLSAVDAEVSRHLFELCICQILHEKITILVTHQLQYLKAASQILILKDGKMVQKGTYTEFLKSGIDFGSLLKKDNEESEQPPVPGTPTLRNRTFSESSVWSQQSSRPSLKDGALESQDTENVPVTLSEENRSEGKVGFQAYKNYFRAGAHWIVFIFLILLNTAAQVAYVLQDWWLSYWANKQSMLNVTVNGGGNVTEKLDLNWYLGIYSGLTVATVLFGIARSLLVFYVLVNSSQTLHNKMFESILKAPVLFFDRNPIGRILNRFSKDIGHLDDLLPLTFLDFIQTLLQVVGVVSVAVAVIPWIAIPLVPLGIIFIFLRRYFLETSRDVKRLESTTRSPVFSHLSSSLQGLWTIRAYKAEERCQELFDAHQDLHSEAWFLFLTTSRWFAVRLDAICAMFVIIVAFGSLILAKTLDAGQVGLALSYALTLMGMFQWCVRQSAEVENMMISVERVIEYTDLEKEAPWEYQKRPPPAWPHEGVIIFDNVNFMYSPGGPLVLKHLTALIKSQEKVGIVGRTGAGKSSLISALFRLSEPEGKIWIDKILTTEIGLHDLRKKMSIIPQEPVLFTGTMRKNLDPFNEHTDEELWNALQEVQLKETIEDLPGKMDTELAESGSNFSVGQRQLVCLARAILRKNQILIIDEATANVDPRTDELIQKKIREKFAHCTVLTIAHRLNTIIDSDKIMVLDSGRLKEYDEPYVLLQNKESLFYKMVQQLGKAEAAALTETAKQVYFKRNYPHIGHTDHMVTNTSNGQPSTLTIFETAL
UniProt P10644, sequence (P10644 whole entry): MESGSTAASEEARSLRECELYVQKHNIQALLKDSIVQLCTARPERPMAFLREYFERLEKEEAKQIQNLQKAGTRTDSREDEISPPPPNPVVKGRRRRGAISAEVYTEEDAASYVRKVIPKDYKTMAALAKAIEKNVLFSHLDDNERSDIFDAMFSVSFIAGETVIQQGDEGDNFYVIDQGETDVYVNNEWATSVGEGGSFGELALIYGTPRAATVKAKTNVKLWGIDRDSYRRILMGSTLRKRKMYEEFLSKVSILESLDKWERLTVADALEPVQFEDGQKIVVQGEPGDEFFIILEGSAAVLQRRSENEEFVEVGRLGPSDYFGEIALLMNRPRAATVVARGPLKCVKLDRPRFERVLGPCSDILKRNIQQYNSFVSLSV
UniProt Q15029, sequence (Q15029 whole entry): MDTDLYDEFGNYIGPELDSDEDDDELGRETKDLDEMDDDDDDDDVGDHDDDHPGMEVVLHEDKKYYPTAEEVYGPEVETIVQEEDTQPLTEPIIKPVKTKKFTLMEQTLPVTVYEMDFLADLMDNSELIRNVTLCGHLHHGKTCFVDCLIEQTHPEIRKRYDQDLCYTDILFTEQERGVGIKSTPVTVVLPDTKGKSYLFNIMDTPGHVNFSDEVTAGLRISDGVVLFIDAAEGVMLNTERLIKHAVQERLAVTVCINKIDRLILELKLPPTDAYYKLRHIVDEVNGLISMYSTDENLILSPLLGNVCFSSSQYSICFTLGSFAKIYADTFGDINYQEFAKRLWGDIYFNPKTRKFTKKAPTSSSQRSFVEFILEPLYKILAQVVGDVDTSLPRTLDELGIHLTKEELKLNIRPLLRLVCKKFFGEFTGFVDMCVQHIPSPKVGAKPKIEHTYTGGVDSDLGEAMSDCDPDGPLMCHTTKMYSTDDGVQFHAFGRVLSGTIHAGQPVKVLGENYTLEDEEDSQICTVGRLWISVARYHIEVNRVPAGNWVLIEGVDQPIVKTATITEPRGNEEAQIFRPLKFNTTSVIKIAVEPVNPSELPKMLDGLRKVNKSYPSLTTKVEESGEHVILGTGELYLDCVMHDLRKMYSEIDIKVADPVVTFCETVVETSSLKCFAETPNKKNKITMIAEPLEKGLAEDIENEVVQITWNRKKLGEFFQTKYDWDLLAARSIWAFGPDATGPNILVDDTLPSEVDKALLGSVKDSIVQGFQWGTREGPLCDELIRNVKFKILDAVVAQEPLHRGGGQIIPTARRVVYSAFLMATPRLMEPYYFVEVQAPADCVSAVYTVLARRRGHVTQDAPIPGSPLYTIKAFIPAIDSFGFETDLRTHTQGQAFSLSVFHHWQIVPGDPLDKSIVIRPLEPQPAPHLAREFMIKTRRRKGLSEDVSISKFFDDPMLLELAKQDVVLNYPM
UniProt O95140, sequence (O95140 whole entry): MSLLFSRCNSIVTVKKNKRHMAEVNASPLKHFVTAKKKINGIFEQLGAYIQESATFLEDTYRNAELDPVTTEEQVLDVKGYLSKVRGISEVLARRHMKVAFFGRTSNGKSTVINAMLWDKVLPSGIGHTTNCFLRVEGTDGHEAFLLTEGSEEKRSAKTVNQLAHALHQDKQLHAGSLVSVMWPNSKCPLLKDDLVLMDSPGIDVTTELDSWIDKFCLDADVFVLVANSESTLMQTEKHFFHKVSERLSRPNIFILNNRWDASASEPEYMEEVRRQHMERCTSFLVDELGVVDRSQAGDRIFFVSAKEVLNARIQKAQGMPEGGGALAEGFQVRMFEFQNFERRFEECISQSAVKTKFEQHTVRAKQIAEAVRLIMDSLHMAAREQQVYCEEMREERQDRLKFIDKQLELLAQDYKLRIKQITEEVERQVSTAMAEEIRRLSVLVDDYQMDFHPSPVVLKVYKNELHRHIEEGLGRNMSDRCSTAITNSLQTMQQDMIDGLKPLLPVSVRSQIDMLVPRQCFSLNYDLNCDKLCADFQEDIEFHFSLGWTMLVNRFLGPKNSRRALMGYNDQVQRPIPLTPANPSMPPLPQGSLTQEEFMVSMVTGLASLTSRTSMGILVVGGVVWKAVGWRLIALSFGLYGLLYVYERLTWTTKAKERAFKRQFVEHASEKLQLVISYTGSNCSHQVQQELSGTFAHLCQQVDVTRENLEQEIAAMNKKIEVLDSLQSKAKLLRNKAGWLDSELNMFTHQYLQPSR
UniProt P61006, sequence (P61006 whole entry): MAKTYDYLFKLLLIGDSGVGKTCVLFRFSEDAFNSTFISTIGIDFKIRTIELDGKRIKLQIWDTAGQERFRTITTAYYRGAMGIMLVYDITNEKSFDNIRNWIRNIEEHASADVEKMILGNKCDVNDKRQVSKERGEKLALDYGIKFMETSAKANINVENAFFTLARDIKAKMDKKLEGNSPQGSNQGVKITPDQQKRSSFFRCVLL

| Target | pEC50 [1] | pEC50 [2] |
| --- | --- | --- |
| UniProt O00442 (effect direction: stabilized) | 4.08 | 4.08 |
| UniProt P61224 (effect direction: stabilized) | 4.25 | 3.9 |
| MTHFD1 (effect direction: stabilized) (UniProt P11586) | 3.95 | 3.71 |
| IPO7 (effect direction: stabilized) (UniProt O95373) | 3.57 | 3.44 |
| GNAI3 (effect direction: stabilized) (UniProt P08754) | 4.36 | < 2.7 |
| DDX46 (effect direction: stabilized) (UniProt Q7L014) | 3.86 | 3.56 |
| SUCLA2 (effect direction: stabilized) (UniProt Q9P2R7) | 3.78 | 3.2 |
| CSK (effect direction: stabilized) (UniProt P41240) | 4.3 | 3.56 |
| UniProt P68363 (effect direction: stabilized) | 3.88 | 2.98 |
| RAB8B (effect direction: stabilized) (UniProt Q92930) | 4.27 | 3.93 |
| TNPO1 (effect direction: stabilized) (UniProt Q92973) | 3.68 | 2.89 |
| RAB4B (effect direction: stabilized) (UniProt P61018) | 5 | 3.79 |
| DTYMK (effect direction: stabilized) (UniProt P23919) | 4.06 | 4.17 |
| UniProt P17612 (effect direction: stabilized) | 3.72 | 3.82 |
| DRG2 (effect direction: stabilized) (UniProt P55039) | 4.32 | 3.7 |
| EIF2B4 (effect direction: stabilized) (UniProt Q9UI10) | 3.73 | 3.65 |
| DCK (effect direction: stabilized) (UniProt P27707) | 3.73 | 3.19 |
| UniProt P19784 (effect direction: stabilized) | 3.92 | 4.12 |
| MAX (effect direction: destabilized) (UniProt P61244) | 4.65 | 4.13 |
| PAK4 (effect direction: stabilized) (UniProt O96013) | 3.44 | 4.07 |
| RAD50 (effect direction: stabilized) (UniProt Q92878) | 3.49 | 3.37 |
| CNP (effect direction: stabilized) (UniProt P09543) | 3.91 | 3.58 |
| EFTUD2 (effect direction: stabilized) (UniProt Q15029) | 3.61 | 2.76 |
| SET (effect direction: stabilized) (UniProt Q01105) | 3.71 | 3.06 |

| Target | pEC50 [1] | pEC50 [2] |
| --- | --- | --- |
| HMGCS1 (effect direction: stabilized) (UniProt Q01581) | 3.79 | 3.98 |
| BPNT1 (effect direction: destabilized) (UniProt O95861) | 3.59 | < 2.7 |
| NEK7 (effect direction: stabilized) (UniProt Q8TDX7) | 4.11 | 4.02 |
| MCM7 (effect direction: stabilized) (UniProt P33993) | 4.14 | 3.42 |
| GMPPA (effect direction: stabilized) (UniProt Q96IJ6) | 3.36 | 3.08 |
| ATP2A2 (effect direction: stabilized) (UniProt P16615) | 4.31 | 3.33 |
| RUVBL2 (effect direction: stabilized) (UniProt Q9Y230) | 3.77 | 4.33 |
| UniProt Q9BW83 (effect direction: stabilized) | 3.96 | 3.12 |
| UniProt Q16512 (effect direction: stabilized) | 4.22 | 3.69 |
| UniProt O75323 (effect direction: stabilized) | 3.66 | 3.94 |
| UniProt P45985 (effect direction: stabilized) | 3.78 | 3.79 |
| VARS (effect direction: stabilized) (UniProt P26640) | 3.79 | 3.57 |
| ANP32B (effect direction: stabilized) (UniProt Q92688) | 3.75 | 2.89 |
| CCT2 (effect direction: stabilized) (UniProt P78371) | 3.56 | 4.34 |
| EEF1A1 (effect direction: stabilized) (UniProt P68104) | 4.26 | 4.11 |
| PRKCB (effect direction: stabilized) (UniProt P05771) | 3.86 | 3.44 |
| PFKL (effect direction: stabilized) (UniProt P17858) | 3.54 | 3.4 |
| GMPS (effect direction: stabilized) (UniProt P49915) | 4.07 | 2.85 |
| RAB21 (effect direction: stabilized) (UniProt Q9UL25) | 4.53 | 3.75 |
| TBRG4 (effect direction: stabilized) (UniProt Q969Z0) | 3.48 | 3.26 |
| CCT4 (effect direction: stabilized) (UniProt P50991) | 3.65 | 3.07 |
| GUK1 (effect direction: stabilized) (UniProt Q16774) | 3.91 | 3.78 |
| OSGEP (effect direction: stabilized) (UniProt Q9NPF4) | 3.88 | 3.8 |
| DYNC1LI2 (effect direction: stabilized) (UniProt O43237) | 4.16 | 3.69 |

| Target | pEC50 [1] | pEC50 [2] |
| --- | --- | --- |
| RHOA (effect direction: stabilized) (UniProt P61586) | 4.45 | 4.15 |
| DHX38 (effect direction: stabilized) (UniProt Q92620) | 3.83 | 4.09 |
| MFN2 (effect direction: stabilized) (UniProt O95140) | 4.04 | 3.77 |
| GNL1 (effect direction: stabilized) (UniProt P36915) | 4.04 | 2.8 |
| DBN1 (effect direction: destabilized) (UniProt Q16643) | 3.79 | 3.27 |
| CSNK2B (effect direction: stabilized) (UniProt P67870) | 4.2 | 3.84 |
| PRKAR1A (effect direction: stabilized) (UniProt P10644) | 3.72 | 3.85 |
| ARPC2 (effect direction: stabilized) (UniProt O15144) | 3.83 | 4.06 |
| RAB39B (effect direction: stabilized) (UniProt Q96DA2) | 4.03 | 3.52 |
| HSPA4L (effect direction: stabilized) (UniProt O95757) | 3.83 | 3.54 |
| PRKCQ (effect direction: stabilized) (UniProt Q04759) | 4.08 | 4.19 |
| RUVBL1 (effect direction: stabilized) (UniProt Q9Y265) | 3.67 | 4.34 |
| RAB8A (effect direction: stabilized) (UniProt P61006) | 4.51 | 4.15 |
| UniProt Q15286 (effect direction: stabilized) | 4.35 | 3.53 |
| UniProt P61225 (effect direction: stabilized) | 4.05 | 3.48 |
| TP53RK (effect direction: stabilized) (UniProt Q96S44) | 3.58 | 3.46 |
| DGKA (effect direction: stabilized) (UniProt P23743) | 3.72 | 3.3 |
| UniProt P48047 (effect direction: stabilized) | 3.9 | 3.53 |
| NDUFA10 (effect direction: stabilized) (UniProt O95299) | 3.81 | 3.91 |
| RAB43 (effect direction: stabilized) (UniProt Q86YS6) | 4.47 | 3.55 |
| DNM1L (effect direction: stabilized) (UniProt O00429) | 3.83 | 3.38 |
| UniProt P61026 (effect direction: stabilized) | 4.35 | 3.83 |
| ABCC4 (effect direction: stabilized) (UniProt O15439) | 3.94 | 3.41 |
